Measurements published in ChEMBL document CHEMBL4507305, “Data for DCP probe TP-024” (2021).

Assays:
[1] = tested on: Epidermal growth factor receptor (Homo sapiens), P00533 [UNDEFINED MUTATION]; conditions: Compound concentration 1000.0 nM
[2] = biological target: Uncharacterized serine/threonine-protein kinase SBK3 (Homo sapiens) (UniProt P0C264); conditions: Compound concentration 1000.0 nM
[3] = biological target: Serine/threonine-protein kinase MRCK alpha (Homo sapiens) (UniProt Q5VT25); conditions: Compound concentration 1000.0 nM
[4] = biological target: Phosphatidylinositol 4,5-bisphosphate 3-kinase catalytic subunit beta isoform (Homo sapiens) (UniProt P42338); conditions: Compound concentration 1000.0 nM
[5] = biological target: Receptor tyrosine-protein kinase erbB-4 (Homo sapiens) (UniProt Q15303); conditions: Compound concentration 1000.0 nM
[6] = biological target: Cyclin-dependent kinase-like 3 (Homo sapiens) (UniProt Q8IVW4); conditions: Compound concentration 1000.0 nM
[7] = biological target: Epithelial discoidin domain-containing receptor 1 (Homo sapiens) (UniProt Q08345); conditions: Compound concentration 1000.0 nM
[8] = biological target: Fibroblast growth factor receptor 1 (Homo sapiens) (UniProt P11362); conditions: Compound concentration 1000.0 nM
[9] = biological target: MAP kinase-activated protein kinase 2 (Homo sapiens) (UniProt P49137); conditions: Compound concentration 1000.0 nM
[10] = biological target: Serine/threonine-protein kinase N1 (Homo sapiens) (UniProt Q16512); conditions: Compound concentration 1000.0 nM
[11] = biological target: Serine/threonine-protein kinase 4 (Homo sapiens) (UniProt Q13043); conditions: Compound concentration 1000.0 nM
[12] = biological target: Dual specificity testis-specific protein kinase 1 (Homo sapiens) (UniProt Q15569); conditions: Compound concentration 1000.0 nM
[13] = biological target: Serine/threonine-protein kinase 32B (Homo sapiens) (UniProt Q9NY57); conditions: Compound concentration 1000.0 nM
[14] = biological target: SRSF protein kinase 2 (Homo sapiens) (UniProt P78362); conditions: Compound concentration 1000.0 nM
[15] = biological target: Interleukin-1 receptor-associated kinase 4 (Homo sapiens) (UniProt Q9NWZ3); conditions: Compound concentration 1000.0 nM
[16] = tested on: Hepatocyte growth factor receptor (Homo sapiens), P08581 [M1250T]; conditions: Compound concentration 1000.0 nM
[17] = biological target: Serine/threonine-protein kinase Nek11 (Homo sapiens) (UniProt Q8NG66); conditions: Compound concentration 1000.0 nM
[18] = biological target: Aurora kinase C (Homo sapiens) (UniProt Q9UQB9); conditions: Compound concentration 1000.0 nM
[19] = biological target: Tyrosine-protein kinase HCK (Homo sapiens) (UniProt P08631); conditions: Compound concentration 1000.0 nM
[20] = biological target: 5-hydroxytryptamine receptor 5A (Homo sapiens) (UniProt P47898); conditions: Compound concentration 10.0 uM
[21] = biological target: Tyrosine-protein kinase Fes/Fps (Homo sapiens) (UniProt P07332); conditions: Compound concentration 1000.0 nM
[22] = biological target: Muscle, skeletal receptor tyrosine-protein kinase (Homo sapiens) (UniProt O15146); conditions: Compound concentration 1000.0 nM
[23] = biological target: Sodium-dependent noradrenaline transporter (Homo sapiens) (UniProt P23975); conditions: Compound concentration 10.0 uM
[24] = biological target: MAP kinase-interacting serine/threonine-protein kinase 2 (Homo sapiens) (UniProt Q9HBH9); conditions: Compound concentration 1000.0 nM
[25] = biological target: 5-hydroxytryptamine receptor 7 (Homo sapiens) (UniProt P34969); conditions: Compound concentration 10.0 uM
[26] = biological target: Serine/threonine-protein kinase TNNI3K (Homo sapiens) (UniProt Q59H18); conditions: Compound concentration 1000.0 nM
[27] = biological target: Cyclin-dependent kinase-like 5 (Homo sapiens) (UniProt O76039); conditions: Compound concentration 1000.0 nM
[28] = biological target: Mitogen-activated protein kinase kinase kinase 5 (Homo sapiens) (UniProt Q99683); conditions: Compound concentration 1000.0 nM
[29] = organism: Rattus norvegicus; conditions: Compound concentration 10.0 uM
[30] = tested on: Tyrosine-protein kinase ABL1 (Homo sapiens), P00519 [H396P]; conditions: Compound concentration 1000.0 nM
[31] = biological target: D(3) dopamine receptor (Homo sapiens) (UniProt P35462); conditions: Compound concentration 10.0 uM
[32] = biological target: Serine/threonine-protein kinase WNK1 (Homo sapiens) (UniProt Q9H4A3); conditions: Compound concentration 1000.0 nM
[33] = biological target: RAC-gamma serine/threonine-protein kinase (Homo sapiens) (UniProt Q9Y243); conditions: Compound concentration 1000.0 nM
[34] = biological target: Serine/threonine-protein kinase TBK1 (Homo sapiens) (UniProt Q9UHD2); conditions: Compound concentration 1000.0 nM
[35] = biological target: Dual specificity tyrosine-phosphorylation-regulated kinase 1A (Homo sapiens) (UniProt Q13627); conditions: Compound concentration 1000.0 nM
[36] = biological target: Serine/threonine-protein kinase VRK2 (Homo sapiens) (UniProt Q86Y07); conditions: Compound concentration 1000.0 nM
[37] = biological target: Calcium/calmodulin-dependent protein kinase type 1G (Homo sapiens) (UniProt Q96NX5); conditions: Compound concentration 1000.0 nM
[38] = biological target: Serine/threonine-protein kinase NIM1 (Homo sapiens) (UniProt Q8IY84); conditions: Compound concentration 1000.0 nM
[39] = biological target: 5-hydroxytryptamine receptor 3A (Homo sapiens) (UniProt P46098); conditions: Compound concentration 10.0 uM
[40] = biological target: Dual specificity mitogen-activated protein kinase kinase 2 (Homo sapiens) (UniProt P36507); conditions: Compound concentration 1000.0 nM
[41] = biological target: Ephrin type-B receptor 2 (Homo sapiens) (UniProt P29323); conditions: Compound concentration 1000.0 nM
[42] = biological target: Tyrosine-protein kinase Mer (Homo sapiens) (UniProt Q12866); conditions: Compound concentration 1000.0 nM
[43] = tested on: Hepatocyte growth factor receptor (Homo sapiens), P08581 [Y1235D]; conditions: Compound concentration 1000.0 nM
[44] = biological target: Ephrin type-A receptor 7 (Homo sapiens) (UniProt Q15375); conditions: Compound concentration 1000.0 nM
[45] = tested on: Mast/stem cell growth factor receptor Kit (Homo sapiens), P10721 [V559D]; conditions: Compound concentration 1000.0 nM
Chain of Mast/stem cell growth factor receptor Kit (Homo sapiens), P10721 [V559D] (P10721 whole entry V559D): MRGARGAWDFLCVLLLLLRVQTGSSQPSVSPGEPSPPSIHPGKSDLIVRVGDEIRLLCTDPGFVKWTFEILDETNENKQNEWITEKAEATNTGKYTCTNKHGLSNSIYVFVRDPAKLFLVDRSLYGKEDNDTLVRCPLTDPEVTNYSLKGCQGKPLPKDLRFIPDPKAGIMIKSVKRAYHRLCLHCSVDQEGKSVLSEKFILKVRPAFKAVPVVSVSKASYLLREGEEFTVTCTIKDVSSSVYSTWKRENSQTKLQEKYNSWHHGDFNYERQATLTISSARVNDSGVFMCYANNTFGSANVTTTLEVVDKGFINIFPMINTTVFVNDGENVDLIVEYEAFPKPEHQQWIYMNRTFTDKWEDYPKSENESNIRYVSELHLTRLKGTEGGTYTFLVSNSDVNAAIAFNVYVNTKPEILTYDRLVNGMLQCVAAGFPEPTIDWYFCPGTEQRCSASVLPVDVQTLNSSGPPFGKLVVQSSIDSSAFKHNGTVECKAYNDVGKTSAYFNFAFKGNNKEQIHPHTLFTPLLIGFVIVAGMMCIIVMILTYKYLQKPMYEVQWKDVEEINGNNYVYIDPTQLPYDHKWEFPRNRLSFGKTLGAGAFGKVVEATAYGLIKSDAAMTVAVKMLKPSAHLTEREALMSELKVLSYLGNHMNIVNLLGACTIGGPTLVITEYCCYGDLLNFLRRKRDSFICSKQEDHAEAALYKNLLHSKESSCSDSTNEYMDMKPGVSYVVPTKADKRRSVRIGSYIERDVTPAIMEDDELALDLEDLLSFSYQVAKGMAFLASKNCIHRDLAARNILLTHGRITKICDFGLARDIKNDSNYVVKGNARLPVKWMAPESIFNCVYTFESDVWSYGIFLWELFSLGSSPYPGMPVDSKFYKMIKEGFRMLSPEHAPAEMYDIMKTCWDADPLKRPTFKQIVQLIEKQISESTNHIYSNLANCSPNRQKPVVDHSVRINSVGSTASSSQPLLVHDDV

Chain of MAP kinase-interacting serine/threonine-protein kinase 2 (Homo sapiens) (Q9HBH9 whole entry, looked up): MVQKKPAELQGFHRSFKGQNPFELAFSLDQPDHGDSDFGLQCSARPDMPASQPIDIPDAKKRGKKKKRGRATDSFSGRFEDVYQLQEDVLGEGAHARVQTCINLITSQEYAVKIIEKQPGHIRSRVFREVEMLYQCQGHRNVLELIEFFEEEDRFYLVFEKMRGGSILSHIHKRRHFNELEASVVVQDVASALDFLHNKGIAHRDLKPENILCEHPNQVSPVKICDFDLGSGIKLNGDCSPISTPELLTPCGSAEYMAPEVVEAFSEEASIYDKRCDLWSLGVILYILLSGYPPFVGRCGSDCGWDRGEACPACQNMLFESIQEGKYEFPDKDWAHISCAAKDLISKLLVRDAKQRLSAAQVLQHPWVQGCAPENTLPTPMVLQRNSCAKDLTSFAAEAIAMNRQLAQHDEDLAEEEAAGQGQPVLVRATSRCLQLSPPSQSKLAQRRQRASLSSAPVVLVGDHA
Chain of Muscle, skeletal receptor tyrosine-protein kinase (Homo sapiens) (O15146 whole entry): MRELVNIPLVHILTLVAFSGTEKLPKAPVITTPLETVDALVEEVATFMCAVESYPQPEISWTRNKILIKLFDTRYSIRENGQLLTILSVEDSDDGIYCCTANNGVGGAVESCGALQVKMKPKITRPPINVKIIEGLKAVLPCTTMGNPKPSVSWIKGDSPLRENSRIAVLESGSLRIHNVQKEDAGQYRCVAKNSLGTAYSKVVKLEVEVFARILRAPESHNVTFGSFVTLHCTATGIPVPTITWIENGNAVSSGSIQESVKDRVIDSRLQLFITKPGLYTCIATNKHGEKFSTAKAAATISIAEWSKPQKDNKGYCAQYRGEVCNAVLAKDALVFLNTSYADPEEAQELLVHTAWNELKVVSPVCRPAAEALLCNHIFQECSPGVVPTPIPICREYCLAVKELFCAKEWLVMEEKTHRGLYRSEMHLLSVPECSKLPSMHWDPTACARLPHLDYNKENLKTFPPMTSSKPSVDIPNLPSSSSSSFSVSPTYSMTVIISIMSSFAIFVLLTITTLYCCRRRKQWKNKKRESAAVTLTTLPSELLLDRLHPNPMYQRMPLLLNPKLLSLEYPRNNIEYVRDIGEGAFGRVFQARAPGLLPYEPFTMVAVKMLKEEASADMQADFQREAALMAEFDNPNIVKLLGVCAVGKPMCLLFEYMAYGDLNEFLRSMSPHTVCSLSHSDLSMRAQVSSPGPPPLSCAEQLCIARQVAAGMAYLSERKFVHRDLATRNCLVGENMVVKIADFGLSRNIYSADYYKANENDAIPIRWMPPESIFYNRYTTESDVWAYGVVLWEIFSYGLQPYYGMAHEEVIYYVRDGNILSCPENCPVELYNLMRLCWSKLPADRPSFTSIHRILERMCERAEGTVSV
Chain of Interleukin-1 receptor-associated kinase 4 (Homo sapiens) (Q9NWZ3 whole entry): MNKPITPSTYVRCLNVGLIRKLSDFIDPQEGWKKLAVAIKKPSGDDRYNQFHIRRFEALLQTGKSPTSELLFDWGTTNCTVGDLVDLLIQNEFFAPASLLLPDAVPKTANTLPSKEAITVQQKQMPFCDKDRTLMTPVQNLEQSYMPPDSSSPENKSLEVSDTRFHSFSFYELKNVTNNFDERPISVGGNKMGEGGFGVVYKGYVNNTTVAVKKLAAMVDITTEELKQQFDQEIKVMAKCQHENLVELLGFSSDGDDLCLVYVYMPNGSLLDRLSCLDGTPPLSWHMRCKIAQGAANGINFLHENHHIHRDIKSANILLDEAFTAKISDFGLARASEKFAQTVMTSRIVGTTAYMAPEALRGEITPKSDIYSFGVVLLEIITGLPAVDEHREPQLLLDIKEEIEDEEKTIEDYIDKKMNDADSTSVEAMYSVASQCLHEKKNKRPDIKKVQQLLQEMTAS
Chain of Fibroblast growth factor receptor 1 (Homo sapiens) (P11362 22-822 limits assumed): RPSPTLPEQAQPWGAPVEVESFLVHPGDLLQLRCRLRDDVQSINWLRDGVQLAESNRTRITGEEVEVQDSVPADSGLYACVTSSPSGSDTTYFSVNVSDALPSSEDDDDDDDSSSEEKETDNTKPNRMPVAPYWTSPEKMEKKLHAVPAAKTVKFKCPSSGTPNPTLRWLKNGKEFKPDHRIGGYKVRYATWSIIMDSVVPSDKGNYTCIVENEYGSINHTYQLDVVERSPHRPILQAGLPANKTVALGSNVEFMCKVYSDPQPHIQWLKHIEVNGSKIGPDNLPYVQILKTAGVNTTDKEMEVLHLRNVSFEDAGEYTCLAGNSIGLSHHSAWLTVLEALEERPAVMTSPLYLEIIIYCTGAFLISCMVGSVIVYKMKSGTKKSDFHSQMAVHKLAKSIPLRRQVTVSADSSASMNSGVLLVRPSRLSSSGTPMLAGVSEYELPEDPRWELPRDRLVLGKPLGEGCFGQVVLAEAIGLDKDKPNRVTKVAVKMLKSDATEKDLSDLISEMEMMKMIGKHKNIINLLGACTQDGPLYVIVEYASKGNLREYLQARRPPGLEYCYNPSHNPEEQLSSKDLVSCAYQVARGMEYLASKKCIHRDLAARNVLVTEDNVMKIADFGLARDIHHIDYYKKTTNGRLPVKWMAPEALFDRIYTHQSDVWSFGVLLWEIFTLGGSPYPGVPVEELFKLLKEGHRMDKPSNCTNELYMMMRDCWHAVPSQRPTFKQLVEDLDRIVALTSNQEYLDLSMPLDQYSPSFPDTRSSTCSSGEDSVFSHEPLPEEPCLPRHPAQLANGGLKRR
Chain of Dual specificity mitogen-activated protein kinase kinase 2 (Homo sapiens) (P36507 whole entry): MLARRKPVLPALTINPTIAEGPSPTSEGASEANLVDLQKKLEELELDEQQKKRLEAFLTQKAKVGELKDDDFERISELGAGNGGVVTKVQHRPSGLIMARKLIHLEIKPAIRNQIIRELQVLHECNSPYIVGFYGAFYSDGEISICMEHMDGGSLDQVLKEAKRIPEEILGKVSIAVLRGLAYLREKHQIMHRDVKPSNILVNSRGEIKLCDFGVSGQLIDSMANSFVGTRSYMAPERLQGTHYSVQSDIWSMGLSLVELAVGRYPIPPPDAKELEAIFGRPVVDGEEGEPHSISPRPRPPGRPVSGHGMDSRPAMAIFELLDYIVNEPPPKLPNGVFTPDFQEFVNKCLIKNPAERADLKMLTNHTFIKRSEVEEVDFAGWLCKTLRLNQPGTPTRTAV
Chain of Tyrosine-protein kinase Mer (Homo sapiens) (Q12866 whole entry): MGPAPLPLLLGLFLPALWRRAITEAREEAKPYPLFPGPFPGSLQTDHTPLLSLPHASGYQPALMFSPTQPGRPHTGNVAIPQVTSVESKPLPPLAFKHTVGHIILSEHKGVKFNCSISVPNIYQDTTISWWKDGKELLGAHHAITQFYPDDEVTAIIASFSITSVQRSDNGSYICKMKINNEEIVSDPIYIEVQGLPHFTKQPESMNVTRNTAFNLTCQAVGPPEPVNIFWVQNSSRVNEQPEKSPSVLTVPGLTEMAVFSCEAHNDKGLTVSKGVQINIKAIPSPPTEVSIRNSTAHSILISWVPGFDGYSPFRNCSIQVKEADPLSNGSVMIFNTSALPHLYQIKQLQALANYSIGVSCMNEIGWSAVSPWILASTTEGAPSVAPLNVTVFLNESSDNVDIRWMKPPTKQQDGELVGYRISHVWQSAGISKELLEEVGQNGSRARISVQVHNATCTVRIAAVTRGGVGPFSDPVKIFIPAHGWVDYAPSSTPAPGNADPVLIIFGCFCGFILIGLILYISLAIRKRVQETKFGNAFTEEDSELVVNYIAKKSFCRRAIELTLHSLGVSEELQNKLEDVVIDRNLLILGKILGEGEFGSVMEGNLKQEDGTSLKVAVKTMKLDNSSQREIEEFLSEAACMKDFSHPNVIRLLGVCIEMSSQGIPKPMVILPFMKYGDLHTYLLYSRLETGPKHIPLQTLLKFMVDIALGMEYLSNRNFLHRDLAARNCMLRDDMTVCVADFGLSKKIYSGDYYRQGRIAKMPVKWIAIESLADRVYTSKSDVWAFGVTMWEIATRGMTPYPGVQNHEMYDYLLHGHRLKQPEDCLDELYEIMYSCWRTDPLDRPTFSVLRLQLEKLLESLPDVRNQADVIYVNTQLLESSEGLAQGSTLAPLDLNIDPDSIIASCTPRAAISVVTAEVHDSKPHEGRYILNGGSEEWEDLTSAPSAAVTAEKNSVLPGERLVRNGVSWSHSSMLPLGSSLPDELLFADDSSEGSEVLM

Cc1cc(-n2nc(Cc3cc(F)cc(C(F)(F)F)c3)nc2C)ccc1C(N)=O [TP-024]
inactive: residual activity [1] 100% | residual activity [2] 91% | residual activity [3] 100% | residual activity [4] 85% | residual activity [5] 67% | residual activity [6] 83% | residual activity [7] 86% | residual activity [8] 100% | residual activity [9] 100% | residual activity [10] 100% | residual activity [11] 100% | residual activity [12] 100% | residual activity [13] 100% | residual activity [14] 100% | residual activity [15] 100% | residual activity [16] 80% | residual activity [17] 100% | residual activity [18] 100% | residual activity [19] 100% | inhibition [20] 7.99% | residual activity [21] 100% | residual activity [22] 100% | inhibition [23] -6.7% | residual activity [24] 100% | inhibition [25] 21.4% | residual activity [26] 100% | residual activity [27] 100% | residual activity [28] 100% | inhibition [29] 7.23% | residual activity [30] 98% | inhibition [31] 3.4% | residual activity [32] 100% | residual activity [33] 100% | residual activity [34] 89% | residual activity [35] 92% | residual activity [36] 100% | residual activity [37] 100% | residual activity [38] 100% | inhibition [39] 5.45% | residual activity [40] 100% | residual activity [41] 100% | residual activity [42] 100% | residual activity [43] 90% | residual activity [44] 98% | residual activity [45] 83%

Cc1nc(Cc2cccc(C(F)(F)F)c2)sc1-c1ccc(C(N)=O)nc1 [TP-024n]
inactive: residual activity [1] 100% | residual activity [2] 100% | residual activity [3] 81% | residual activity [4] 83% | residual activity [5] 74% | residual activity [6] 100% | residual activity [7] 100% | residual activity [8] 83% | residual activity [9] 100% | residual activity [10] 98% | residual activity [11] 100% | residual activity [12] 88% | residual activity [13] 69% | residual activity [14] 100% | residual activity [15] 100% | residual activity [16] 92% | residual activity [17] 100% | residual activity [18] 100% | residual activity [19] 100% | inhibition [20] 3.99% | residual activity [21] 99% | residual activity [22] 89% | inhibition [23] -8.77% | residual activity [24] 100% | inhibition [25] 16.4% | residual activity [26] 100% | residual activity [27] 100% | residual activity [28] 100% | inhibition [29] 4.9% | residual activity [30] 96% | inhibition [31] 6.21% | residual activity [32] 100% | residual activity [33] 92% | residual activity [34] 91% | residual activity [35] 67% | residual activity [36] 100% | residual activity [37] 99% | residual activity [38] 100% | inhibition [39] 4.72% | residual activity [40] 98% | residual activity [41] 86% | residual activity [42] 98% | residual activity [43] 91% | residual activity [44] 100% | residual activity [45] 100%
